From ChEMBL document CHEMBL1287810, “Diamino-1,2,4-triazole derivatives are selective inhibitors of TYK2 and JAK1 over JAK2 and JAK3” (Bioorg Med Chem Lett, 2010)

Legend:
[1] = target: T1, Tyrosine-protein kinase JAK3 (Homo sapiens, UniProt P52333)
T1 sequence (P52333 whole entry): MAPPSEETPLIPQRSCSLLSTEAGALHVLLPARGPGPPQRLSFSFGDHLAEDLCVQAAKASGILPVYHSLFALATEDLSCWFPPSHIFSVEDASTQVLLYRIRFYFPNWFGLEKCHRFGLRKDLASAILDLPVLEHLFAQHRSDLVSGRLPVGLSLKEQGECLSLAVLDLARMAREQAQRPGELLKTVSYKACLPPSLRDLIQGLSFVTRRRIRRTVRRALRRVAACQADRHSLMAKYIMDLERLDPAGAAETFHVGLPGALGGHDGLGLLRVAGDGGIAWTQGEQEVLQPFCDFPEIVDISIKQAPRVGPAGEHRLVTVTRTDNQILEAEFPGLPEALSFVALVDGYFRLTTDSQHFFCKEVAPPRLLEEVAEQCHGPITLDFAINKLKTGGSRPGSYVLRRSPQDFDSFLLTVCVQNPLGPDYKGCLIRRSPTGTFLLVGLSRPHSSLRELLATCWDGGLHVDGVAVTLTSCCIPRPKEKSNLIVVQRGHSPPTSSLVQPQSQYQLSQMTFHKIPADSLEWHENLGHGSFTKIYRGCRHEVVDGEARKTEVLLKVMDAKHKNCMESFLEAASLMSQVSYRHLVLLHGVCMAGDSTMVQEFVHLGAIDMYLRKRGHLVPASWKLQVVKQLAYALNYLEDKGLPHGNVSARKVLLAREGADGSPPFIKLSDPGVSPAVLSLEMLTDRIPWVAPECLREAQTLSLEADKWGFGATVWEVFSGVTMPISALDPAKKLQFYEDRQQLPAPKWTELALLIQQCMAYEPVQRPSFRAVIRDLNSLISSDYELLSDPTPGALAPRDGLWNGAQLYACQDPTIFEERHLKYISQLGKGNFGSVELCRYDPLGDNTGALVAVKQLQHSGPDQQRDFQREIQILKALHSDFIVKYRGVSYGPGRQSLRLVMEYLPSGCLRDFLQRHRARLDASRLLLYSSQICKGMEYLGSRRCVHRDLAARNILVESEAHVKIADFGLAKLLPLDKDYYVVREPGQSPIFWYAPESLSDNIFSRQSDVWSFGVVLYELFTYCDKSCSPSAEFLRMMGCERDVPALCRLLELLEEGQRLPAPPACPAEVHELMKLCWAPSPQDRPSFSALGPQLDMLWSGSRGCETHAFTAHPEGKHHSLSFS

[2] = target: Non-receptor tyrosine-protein kinase TYK2 (Homo sapiens, UniProt P29597)
[3] = target: Tyrosine-protein kinase JAK2 (Homo sapiens, UniProt O60674)
[4] = target: Tyrosine-protein kinase JAK1 (Homo sapiens, UniProt P23458)
Tyrosine-protein kinase JAK1, sequence (P23458 whole entry): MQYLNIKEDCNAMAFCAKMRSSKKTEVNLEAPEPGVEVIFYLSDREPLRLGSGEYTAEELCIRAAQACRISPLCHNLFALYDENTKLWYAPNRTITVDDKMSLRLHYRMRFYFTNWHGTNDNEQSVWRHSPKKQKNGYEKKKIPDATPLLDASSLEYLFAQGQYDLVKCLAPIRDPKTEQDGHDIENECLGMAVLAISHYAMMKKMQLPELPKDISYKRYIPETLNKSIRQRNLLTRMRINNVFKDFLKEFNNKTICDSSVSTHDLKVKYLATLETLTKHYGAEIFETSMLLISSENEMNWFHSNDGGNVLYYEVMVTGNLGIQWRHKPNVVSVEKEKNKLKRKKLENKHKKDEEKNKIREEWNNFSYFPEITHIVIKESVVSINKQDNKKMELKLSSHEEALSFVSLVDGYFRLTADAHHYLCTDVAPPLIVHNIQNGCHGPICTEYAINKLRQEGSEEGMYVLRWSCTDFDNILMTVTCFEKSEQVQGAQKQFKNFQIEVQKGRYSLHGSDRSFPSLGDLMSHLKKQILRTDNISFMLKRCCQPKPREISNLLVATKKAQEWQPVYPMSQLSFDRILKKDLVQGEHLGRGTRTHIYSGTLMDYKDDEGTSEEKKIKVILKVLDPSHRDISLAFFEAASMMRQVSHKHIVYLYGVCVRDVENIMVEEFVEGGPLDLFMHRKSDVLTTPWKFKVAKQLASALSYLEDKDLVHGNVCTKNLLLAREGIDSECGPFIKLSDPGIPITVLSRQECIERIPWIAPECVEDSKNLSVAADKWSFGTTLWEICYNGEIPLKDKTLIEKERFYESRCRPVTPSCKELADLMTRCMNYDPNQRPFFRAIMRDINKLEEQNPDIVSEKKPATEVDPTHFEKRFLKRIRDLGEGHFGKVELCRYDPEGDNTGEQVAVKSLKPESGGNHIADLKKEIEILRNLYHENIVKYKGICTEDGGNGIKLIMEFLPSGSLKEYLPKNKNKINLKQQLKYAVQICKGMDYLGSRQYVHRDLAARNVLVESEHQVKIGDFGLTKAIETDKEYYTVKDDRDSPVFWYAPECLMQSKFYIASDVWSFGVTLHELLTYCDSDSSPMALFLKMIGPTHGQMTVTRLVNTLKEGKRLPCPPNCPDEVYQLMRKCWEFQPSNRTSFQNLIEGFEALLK

Non-receptor tyrosine-protein kinase TYK2, sequence (P29597 whole entry): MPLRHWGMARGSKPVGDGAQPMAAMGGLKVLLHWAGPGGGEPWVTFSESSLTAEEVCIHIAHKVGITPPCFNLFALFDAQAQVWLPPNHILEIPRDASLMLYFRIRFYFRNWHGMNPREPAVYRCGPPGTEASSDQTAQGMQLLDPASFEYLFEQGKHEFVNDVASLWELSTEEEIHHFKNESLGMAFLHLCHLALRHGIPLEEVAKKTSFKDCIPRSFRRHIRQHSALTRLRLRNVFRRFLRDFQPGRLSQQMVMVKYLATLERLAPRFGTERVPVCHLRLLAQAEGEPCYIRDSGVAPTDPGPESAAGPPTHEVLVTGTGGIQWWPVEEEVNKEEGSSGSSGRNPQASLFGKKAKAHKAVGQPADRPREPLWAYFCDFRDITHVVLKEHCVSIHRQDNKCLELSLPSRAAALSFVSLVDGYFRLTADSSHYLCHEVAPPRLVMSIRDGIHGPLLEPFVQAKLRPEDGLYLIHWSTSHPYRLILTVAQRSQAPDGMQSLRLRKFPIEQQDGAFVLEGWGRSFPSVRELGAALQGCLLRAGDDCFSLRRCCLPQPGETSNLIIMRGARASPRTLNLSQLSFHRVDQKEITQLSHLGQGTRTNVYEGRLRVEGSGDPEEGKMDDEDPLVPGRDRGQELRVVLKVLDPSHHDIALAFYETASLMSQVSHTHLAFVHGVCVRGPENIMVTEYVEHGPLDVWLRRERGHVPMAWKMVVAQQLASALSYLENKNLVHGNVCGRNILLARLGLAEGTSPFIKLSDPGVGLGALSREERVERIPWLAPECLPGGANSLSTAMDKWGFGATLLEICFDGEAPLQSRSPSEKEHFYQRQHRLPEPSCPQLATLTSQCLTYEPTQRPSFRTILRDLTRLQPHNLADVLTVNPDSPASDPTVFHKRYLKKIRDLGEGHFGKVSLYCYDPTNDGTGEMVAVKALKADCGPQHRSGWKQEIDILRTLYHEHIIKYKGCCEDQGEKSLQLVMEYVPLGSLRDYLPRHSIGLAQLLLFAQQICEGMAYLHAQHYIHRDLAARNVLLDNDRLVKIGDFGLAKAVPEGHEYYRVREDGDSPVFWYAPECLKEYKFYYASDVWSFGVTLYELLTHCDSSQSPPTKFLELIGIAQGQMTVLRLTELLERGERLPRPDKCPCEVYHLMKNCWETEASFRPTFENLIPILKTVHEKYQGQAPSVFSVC
Tyrosine-protein kinase JAK2, sequence (O60674 whole entry): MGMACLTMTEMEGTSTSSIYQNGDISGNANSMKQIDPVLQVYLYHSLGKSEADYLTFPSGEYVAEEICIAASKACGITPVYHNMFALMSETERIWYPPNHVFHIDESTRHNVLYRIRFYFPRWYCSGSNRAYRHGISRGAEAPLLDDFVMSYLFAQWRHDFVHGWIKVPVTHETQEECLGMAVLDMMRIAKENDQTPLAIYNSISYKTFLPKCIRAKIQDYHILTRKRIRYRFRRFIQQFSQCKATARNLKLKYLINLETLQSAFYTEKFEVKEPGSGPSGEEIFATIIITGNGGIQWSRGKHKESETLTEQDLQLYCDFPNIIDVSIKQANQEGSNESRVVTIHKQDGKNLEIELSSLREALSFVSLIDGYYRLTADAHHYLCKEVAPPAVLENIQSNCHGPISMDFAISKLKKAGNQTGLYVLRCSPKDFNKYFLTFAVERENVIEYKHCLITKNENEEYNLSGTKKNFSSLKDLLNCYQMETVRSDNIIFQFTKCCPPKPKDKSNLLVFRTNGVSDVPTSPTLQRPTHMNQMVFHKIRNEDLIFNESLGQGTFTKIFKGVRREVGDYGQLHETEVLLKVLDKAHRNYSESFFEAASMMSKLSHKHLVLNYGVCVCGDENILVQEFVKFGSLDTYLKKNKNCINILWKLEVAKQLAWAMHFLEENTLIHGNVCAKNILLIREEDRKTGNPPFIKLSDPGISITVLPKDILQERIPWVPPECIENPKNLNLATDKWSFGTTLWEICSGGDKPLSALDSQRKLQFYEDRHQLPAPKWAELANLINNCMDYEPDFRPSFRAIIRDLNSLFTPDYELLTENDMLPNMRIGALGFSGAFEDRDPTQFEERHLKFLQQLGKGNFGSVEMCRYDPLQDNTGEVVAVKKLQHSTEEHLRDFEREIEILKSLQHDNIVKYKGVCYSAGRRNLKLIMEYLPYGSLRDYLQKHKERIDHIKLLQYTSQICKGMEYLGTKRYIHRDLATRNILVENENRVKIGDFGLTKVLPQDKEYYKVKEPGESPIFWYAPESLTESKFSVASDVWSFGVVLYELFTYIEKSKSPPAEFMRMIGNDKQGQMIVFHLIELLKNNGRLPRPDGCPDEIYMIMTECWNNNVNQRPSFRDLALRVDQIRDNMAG

CN(C)c1ccc(Nc2nc(N)n(C(=O)c3c(F)cccc3F)n2)cc1
IC50 [1]: 850 nM | IC50 [2]: 70 nM | IC50 [3]: 2500 nM | IC50 [4]: 80 nM

CCOC(=O)c1cccc(Nc2nc(N)nn2C(=O)c2c(F)cccc2F)c1
IC50 [2]: > 10000 nM

COC(=O)c1ccc(Nc2nc(N)n(C(=O)c3c(F)cccc3F)n2)cc1
IC50 [1]: > 10000 nM | IC50 [2]: 760 nM | IC50 [3]: > 10000 nM | IC50 [4]: 500 nM

CCOC(=O)c1cccc(Nc2nc(N)n(C(=O)c3ccco3)n2)c1
IC50 [2]: > 10000 nM

CCOC(=O)c1cccc(Nc2nc(N)n(C(=O)c3ccccc3F)n2)c1
IC50 [1]: > 10000 nM | IC50 [2]: 6040 nM | IC50 [3]: > 10000 nM | IC50 [4]: ≥ 10000 nM

CCOC(=O)c1cccc(Nc2nc(N)n(C(=O)c3ccc(N(C)C)cc3)n2)c1
IC50 [2]: > 10000 nM

Nc1nc(Nc2cccnc2)nn1C(=O)c1c(F)cccc1F
IC50 [1]: 5000 nM | IC50 [2]: 300 nM | IC50 [3]: > 10000 nM | IC50 [4]: 160 nM

Nc1nc(Nc2cccc(C(=O)O)c2)nn1C(=O)c1c(F)cccc1F
IC50 [1]: > 10000 nM | IC50 [2]: 690 nM | IC50 [3]: > 10000 nM | IC50 [4]: 610 nM

CCOC(=O)c1cccc(Nc2nnc(N)[nH]2)c1
IC50 [2]: > 10000 nM

Nc1nc(Nc2cccc(S(N)(=O)=O)c2)nn1C(=O)c1c(F)cccc1F
IC50 [1]: 1250 nM | IC50 [2]: 70 nM | IC50 [3]: 2500 nM | IC50 [4]: 19 nM

CCOC(=O)c1cccc(Nc2nc(N)n(C(=O)c3c(F)cccc3F)n2)c1
IC50 [1]: > 10000 nM | IC50 [2]: 1720 nM | IC50 [3]: > 10000 nM | IC50 [4]: 990 nM

CN(C)c1cccc(Nc2nc(N)n(C(=O)c3c(F)cccc3F)n2)c1
IC50 [1]: 2000 nM | IC50 [2]: 70 nM | IC50 [3]: 5000 nM | IC50 [4]: 39 nM

Nc1nc(Nc2ccc(C(=O)O)cc2)nn1C(=O)c1c(F)cccc1F
IC50 [1]: 1470 nM | IC50 [2]: 42 nM | IC50 [3]: 2110 nM | IC50 [4]: 45 nM

Nc1nc(Nc2ccccc2)nn1C(=O)c1c(F)cccc1F
IC50 [1]: 3250 nM | IC50 [2]: 360 nM | IC50 [3]: ≥ 10000 nM | IC50 [4]: 230 nM

CCOC(=O)c1cccc(Nc2nc(N)n(C(=O)c3ccc(C(F)(F)F)cc3)n2)c1
IC50 [2]: > 10000 nM

CCOC(=O)c1cccc(Nc2nc(N)n(C(=O)c3ccccc3)n2)c1
IC50 [2]: > 10000 nM
